Measurements as given in US10294202B2, “Pyrrolidinones as herbicides” (FMC Corporation, priority 2013, dated 2019).

Key:
[1] = tested on: cupgrass, woolly; assay: Test C pre-/postemergence herbicide test; assay type: in vivo, Eriochloa villosa
Description: Seeds of plant species selected from blackgrass (Alopecurus myosuroides), ryegrass, Italian (Italian ryegrass, Lolium multiflorum), wheat (winter wheat, Triticum aestivum), galium (catchweed bedstraw, Galium aparine), corn (Zea mays), crabgrass, large (large crabgrass, Digitaria sanguinalis), foxtail, giant (giant foxtail, Setaria faberii), johnsongrass (Sorghum halepense), lambsquarters (Chenopodium album), morningglory (Ipomoea coccinea), nutsedge, yellow (yellow nutsedge, Cyperus esculentus), pigweed (Amaranthus retroflexus), ragweed (common ragweed, Ambrosia elatior), soybean (Glycine max), barnyardgrass (Echinochloa crus-galli), oilseed rape (Brassica napus), waterhemp (common waterhemp, Amaranthus rudis), kochia (Kochia scoparia), oat, wild (wild oat, Avena fatua), surinam grass (Brachiaria decumbens), foxtail, green (green foxtail, Setaria viridis), goosegrass (Eleusine indica), bromegrass, downy (downy bromegrass, Bromus tectorum), nightshade (eastern black nightshade, Solanum ptycanthum), cocklebur (common cocklebur, Xanthium strumarium), cupgrass, woolly (woolly cupgrass, Eriochloa villosa), bermudagrass (Cynodon dactylon), sunflower, (common oilseed sunflower, Helianthus annuus), Russian thistle (Salsola kali) and velvetleaf (Abutilon theophrasti) were planted into a blend of loam soil and sand and treated preemergence with test chemicals formulated in a non-phytotoxic solvent mixture which included a surfactant. At the same time, plants selected from these crop and weed species and also barley (winter barley, Hordeum vulgare), […]), chickweed (common chickweed, Stellaria media), deadnettle (henbit deadnettle, Lamium amplexicaule), and canarygrass (littleseed canarygrass, Phalaris minor) were planted in pots containing Redi-Earth® planting medium (Scotts Company, 14111 Scottslawn Road, Marysville, Ohio 43041) comprising spaghnum peat moss, vermiculite, wetting agent and starter nutrients and treated with postemergence applications of test chemicals formulated in the same manner. Plants ranged in height from 2 to 18 cm (1- to 4-leaf stage) for postemergence treatments. Treated plants and controls were maintained in a greenhouse for 13 to 15 days, after which time all species were compared to controls and visually evaluated. Plant response ratings, summarized in Table C, are based on a scale of 0 to 100 where 0 is no effect and 100 is complete control. A dash (-) response means no test result.

[2] = tested on: arrowleaf sida; assay: Test E preemergence herbicide test; assay type: in vivo, Sida rhombifolia; design: key: 0 = no effect, 100 = complete control
Description: (§1) Seeds of plant species selected from corn (Zea mays), soybean (Glycine max), velvetleaf (Abutilon theophrasti), lambsquarters (Chenopodium album), wild poinsettia (Euphorbia heterophylla), pigweed, palmer (palmer pigweed, Amaranthus palmeri), waterhemp (common waterhemp, Amaranthus rudis), surinam grass (Brachiaria decumbens), crabgrass, large (large crabgrass, Digitaria sanguinalis), crabgrass, Brazil (Brazilian crabgrass, Digitaria horizontalis), panicum, fall (fall panicum, Panicum dichotomiflorum), foxtail, giant (giant foxtail, Setaria faberii), foxtail, green (green foxtail, Setaria viridis), goosegrass (Eleusine indica), johnsongrass (Sorghum halepense), ragweed (common ragweed, Ambrosia elatior), barnyardgrass (Echinochloa crus-galli), sandbur (southern sandbur, Cenchrus echinatus), arrowleaf […] rhombifolia), ryegrass, Italian (Italian ryegrass, Lolium multiflorum), dayflower, VA (Virginia dayflower, Commelina virginica), field bindweed (Convolvulus arvensis), morningglory (Ipomoea coccinea), nightshade (eastern black nightshade, Solanum ptycanthum), kochia (Kochia scoparia), nutsedge, yellow (yellow nutsedge, Cyperus esculentus), cocklebur (common cocklebur, Xanthium strumarium), smartweed (ladysthumb smartweed, Polygonum Persicaria) and beggarticks (hairy beggarticks, Bidens pilosa), were planted into a silt loam soil and treated preemergence with test chemicals formulated in a non-phytotoxic solvent mixture which included a surfactant. Treated plants and controls were maintained in a greenhouse for 21 days, after which time all species were compared to controls and visually evaluated. Plant response ratings, summarized in Table E, are based on a scale of 0 to 100 where 0 is no effect and 100 is complete control. A dash (-) response means no test result.

[3] = tested on: kochia; assay: Test E preemergence herbicide test; assay type: in vivo, Kochia scoparia; design: key: 0 = no effect, 100 = complete control
Description: as §1

[4] = tested on: sprangletop, Brdd.; assay: Test F flood (paddy) test; assay type: in vivo, Leptochloa fascicularis; details: 21 d, scale 0-100
Procedure, shortened: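 Visual injury ratings (0 no effect to 100 complete control) were taken 21 d after treatment against untreated controls. Compounds went directly into paddy water held 3 cm above soil, applied at the 2.0–2.5-leaf stage in sterilized Tama silt loam under a 30/27 °C, 16-h greenhouse regime.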

[5] = Preemergence, 62 g ai/ha, scale 0 to 100
[6] = Preemergence, 125 g ai/ha, scale 0 to 100 (0 no effect, 100 complete control)
[7] = Preemergence, 31 g ai/ha, scale 0 to 100 (0 no effect, 100 complete control)
[8] = Preemergence, 250 g ai/ha, scale 0 to 100 (0 no effect, 100 complete control)
[9] = Postemergence, 31 g ai/ha, scale 0 (no effect) to 100 (complete control)
[10] = Postemergence, 62 g ai/ha, scale 0 to 100 (0 no effect, 100 complete control)
[11] = Postemergence, 125 g ai/ha, scale 0 to 100 (0 no effect, 100 complete control)
[12] = Postemergence, 250 g ai/ha, scale 0 to 100 (0 no effect, 100 complete control)

SMILES | Plant response rating, Cupgrass, Woolly [1, 5] | Plant response rating, Cupgrass, Woolly [1, 6] | Cupgrass, Woolly plant response rating [1, 7] | Plant response rating, Arrowleaf Sida ([2]; 31 g ai/ha) | Plant response rating, Arrowleaf Sida ([2]; 62 g ai/ha) | Plant response rating, Arrowleaf Sida ([2]; 125 g ai/ha) | Plant response rating, Arrowleaf Sida ([2]; 250 g ai/ha) | Plant response rating, Kochia ([3]; 31 g ai/ha) | Plant response rating, Kochia ([3]; 62 g ai/ha) | Plant response rating, Kochia ([3]; 125 g ai/ha) | Plant response rating, Kochia ([3]; 250 g ai/ha) | Plant response rating, Sprangletop, Brdd. ([4]; 125 g ai/ha) | Plant response rating, Sprangletop, Brdd. ([4]; 250 g ai/ha) | Plant response rating, Sprangletop, Brdd. ([4]; 500 g ai/ha) | further results
O=C1NCC(c2ccc(Cl)c(Cl)c2)C1C(=O)Nc1ccccc1F (racemic) [Compound 14] | 0 | 0 | 0 | 0 | 0 | 0 | 0 | 0 | 0 | 0 | 0 | – | – | – | Plant response rating, Cupgrass, Woolly [1, 8]: 80; Plant response rating, Arrowleaf Sida ([2]; 16 g ai/ha): 0; Plant response rating, Kochia ([3]; 16 g ai/ha): 0
O=C1NCC(c2ccc(F)c(F)c2)C1C(=O)Nc1cccc(F)c1F (racemic) [Compound 101] | – | – | – | – | – | – | – | – | – | – | – | 85 | 95 | 95 | Plant response rating, Sprangletop, Brdd. ([4]; 64 g ai/ha): 75
O=C1NCC(c2ccc(C(F)(F)F)cc2)C1C(=O)Nc1cccc(F)c1F (racemic) [Compound 202] | – | – | – | 0 | 30 | 70 | 80 | 95 | 95 | 95 | 98 | – | – | – | –
O=C1NCC(c2cccc(C(F)F)c2)C1C(=O)Nc1ccccc1F (racemic) [Compound 210] | – | – | – | – | – | – | – | – | – | – | – | 100 | 100 | 100 | –
O=C1NCC(c2ccc(OC(F)F)cc2)C1C(=O)Nc1cccc(F)c1F (racemic) [Compound 350] | – | – | – | 0 | 0 | 20 | 50 | 0 | 40 | 75 | 90 | – | – | – | –
O=C1NCCC1C(=O)N(c1ccc(F)c(F)c1)c1ccccc1F (stereo not shown) [Compound 5, N-(3,4-difluorophenyl)-N-(2-fluorophenyl)-2-oxo-3-pyrrolidinecarboxamide] | 85 | 90 | 80 | – | – | – | – | – | – | – | – | 85 | 85 | 85 | Plant response rating, Cupgrass, Woolly [1, 8]: 95; Plant response rating, Sprangletop, Brdd. ([4]; 1000 g ai/ha): 85; Plant response rating, Sprangletop, Brdd. ([4]; 2000 g ai/ha): 90
O=C1NCC(c2cc(F)c(F)c(F)c2)C1C(=O)Nc1cccc(F)c1F (stereo not shown) [Compound 48] | 70 | 85 | 70 | – | – | – | – | – | – | – | – | – | – | – | Plant response rating, Cupgrass, Woolly ([1]; Postemergence, 16 g ai/ha, scale 0 to 100 (0 no effect, 100 complete control)): 0; Plant response rating, Cupgrass, Woolly [1, 9]: 0; Plant response rating, Cupgrass, Woolly [1, 10]: 5; Plant response rating, Cupgrass, Woolly [1, 11]: 5; Plant response rating, Cupgrass, Woolly ([1]; Preemergence, 16 g ai/ha, scale 0 to 100): 25
O=C1NCC(c2cc(F)c(F)cc2F)C1C(=O)Nc1cccc(F)c1F (stereo not shown) [Compound 50] | – | – | – | – | – | – | – | – | – | – | – | – | – | – | Plant response rating, Cupgrass, Woolly [1, 9]: 0; Plant response rating, Cupgrass, Woolly [1, 10]: 0; Plant response rating, Cupgrass, Woolly [1, 11]: 0; Plant response rating, Cupgrass, Woolly [1, 12]: 10
O=C1NCC(c2ccc(Cl)c(F)c2)C1C(=O)Nc1cccc(F)c1F (stereo not shown) [Compound 52] | 70 | 75 | 40 | – | – | – | – | – | – | – | – | – | – | – | Plant response rating, Cupgrass, Woolly [1, 9]: 0; Plant response rating, Cupgrass, Woolly [1, 10]: 5; Plant response rating, Cupgrass, Woolly [1, 11]: 5; Plant response rating, Cupgrass, Woolly [1, 12]: 10; Plant response rating, Cupgrass, Woolly [1, 8]: 85
O=C1NCC(c2ccc(F)c(Cl)c2)C1C(=O)Nc1ccccc1F (stereo not shown) [Compound 60] | 75 | 75 | 55 | – | – | – | – | – | – | – | – | – | – | – | Plant response rating, Cupgrass, Woolly [1, 9]: 0; Plant response rating, Cupgrass, Woolly [1, 10]: 0; Plant response rating, Cupgrass, Woolly [1, 11]: 5
O=C1NCC(c2cccc(OC(F)(F)F)c2)C1C(=O)Nc1ccccc1F (stereo not shown) [Compound 69] | 85 | 85 | – | – | – | – | – | – | – | – | – | – | – | – | Cupgrass, Woolly plant response rating ([1]; Preemergence, 31 g ai/ha, scale 0 to 100, 0 is no effect and 100 is complete control): 75; Plant response rating (scale of 0 to 100), Cupgrass, Woolly ([1]; Preemergence, 250 g ai/ha): 90
O=C1NCC(c2ccc(C(F)(F)F)cc2)C1C(=O)Nc1cccc(F)c1F (stereo not shown) [Compound 80, N-(2,3-difluorophenyl)-2-oxo-4-[4-(trifluoromethyl)phenyl]-3-pyrrolidinecarboxamide] | – | – | – | 0 | 0 | 0 | 10 | 60 | 60 | 80 | 90 | – | – | – | Plant response rating, Arrowleaf Sida ([2]; 16 g ai/ha): 0
O=C1NC[C@H](c2cccc(C(F)(F)F)c2)[C@H]1C(=O)Nc1ccccc1F [Compound 204, (3R,4S)—N-(2-fluorophenyl)-2-oxo-4-[3-(trifluoromethyl)phenyl]-3-pyrrolidinecarboxamide] | – | – | – | 0 | 0 | 0 | 0 | 0 | 0 | 90 | 40 | 98 | 100 | 100 | –
O=C1NC[C@H](c2cccc(C(F)(F)F)c2)[C@H]1C(=O)Nc1cccc(F)c1F [Compound 206] | – | – | – | 0 | 0 | 10 | 50 | 0 | 0 | 50 | 80 | 95 | 100 | 100 | Plant response rating, Sprangletop, Brdd. ([4]; 64 g ai/ha): 90
CN1CC(c2ccc(F)c(F)c2)C(C(=O)Nc2cccc(F)c2F)C1=O (stereo not shown) [Compound 303] | – | – | – | – | – | – | – | – | – | – | – | 80 | 85 | 90 | Plant response rating, Sprangletop, Brdd. ([4]; 62 g ai/ha): 70
